In ChEMBL document CHEMBL6114989, “D-morphinan analogs with favorable pharmacokinetic profiles as dual-acting antidepressants” (Eur J Med Chem, 2025):
pEC50, pIC50: −log10 of the molar value. The source made the active and inactive calls. The calls are words filed in the database; no cut-off is given here.

What was measured:
[1] = target: T1, Sodium-dependent dopamine transporter (Homo sapiens, UniProt Q01959); test: Inhibition of DAT (unknown origin) at 10 uM relative to control
[2] = target: T2, Sodium-dependent noradrenaline transporter (Homo sapiens, UniProt P23975); test: Inhibition of NET (unknown origin) at 10 uM relative to control
Mu-type opioid receptor [3] = target: T3, Mu-type opioid receptor (Homo sapiens, UniProt P35372); test: Agonist activity at human mu-opioid receptor stably expressed in CHO cells assessed as inhibition of forskolin-induced cAMP accumulation at 30 uM preincubated with compound for 10 mins followed by forskolin induction and measured after 30 mins by LANCE Ultra cAMP assay relative to control; type: functional, cell-based; details: time 40.0 min
[4] = target: Sodium-dependent serotonin transporter (Homo sapiens, UniProt P31645)
[5] = target: T4, Glutamate NMDA receptor; GRIN1/GRIN2A (Homo sapiens, UniProt Q05586+Q12879); test: Inhibition of human GluN1/GluN2A NMDA receptor expressed in HEK293 cells assessed as reduction in glutamate induced current at -70 mV holding potential by whole-cell patch clamp technique; type: cell-based
[6] = target: T4, Glutamate NMDA receptor; GRIN1/GRIN2A; test: Antagonist activity at human GluN1/GluN2A NMDA receptor expressed in HEK293 cells assessed as reduction in glutamate induced current at -70 mV holding potential by whole-cell patch clamp technique; type: cell-based
[7] = target: T2, Sodium-dependent noradrenaline transporter; test: Inhibition of human NET
Mu-type opioid receptor [8] = target: T3, Mu-type opioid receptor; test: Agonist activity at human mu-opioid receptor stably expressed in CHO cells assessed as inhibition of forskolin-induced cAMP accumulation preincubated with compound for 10 mins followed by forskolin induction and measured after 30 mins by LANCE Ultra cAMP assay; type: functional, cell-based
[9] = Selectivity index, ratio of IC50 for inhibition of human GluN1/GluN2A NMDA receptor expressed in HEK293 cells to IC50 for inhibition of SERT (unknown origin); type: cell-based
[10] = Nephrotoxicity against human HEK293 cells assessed as inhibition of cell proliferation incubated for 48 hrs by celltiter-luminescence assay; type: toxicity, cell-based
[11] = Hepatotoxicity against human HepG2 cells assessed as inhibition of cell proliferation incubated for 48 hrs by celltiter-luminescence assay; type: toxicity, cell-based
[12] = target: T1, Sodium-dependent dopamine transporter; test: Inhibition of DAT (unknown origin)
[13] = Half life in ICR mouse at 10 mg/kg, ip measured upto 24 hrs by LC-MS/MS analysis; type: ADME, organism-based; details: in vivo
[14] = AUC (0 to t) in ICR mouse at 10 mg/kg, ip measured upto 24 hrs by LC-MS/MS analysis; type: ADME, organism-based; details: in vivo
[15] = Metabolic stability in mouse liver microsome assessed as half life in presence of NADPH measured upto 60 mins by LC-MS/MS analysis; type: ADME; details: liver microsomes
[16] = Cmax in ICR mouse at 10 mg/kg, ip measured upto 24 hrs by LC-MS/MS analysis; type: ADME, organism-based; details: in vivo
[17] = AUC (0 to infinity) in ICR mouse at 10 mg/kg, ip measured upto 24 hrs by LC-MS/MS analysis; type: ADME, organism-based; details: in vivo
[18] = Metabolic stability in mouse liver microsome assessed as hepatic extraction ratio in presence of NADPH measured upto 60 mins by LC-MS/MS analysis; type: ADME; details: liver microsomes, read-out: ERH
[19] = Metabolic stability in mouse liver microsome assessed as intrinsic clearance in presence of NADPH measured upto 60 mins by LC-MS/MS analysis; type: ADME; details: liver microsomes, read-out: CLH
[20] = Metabolic stability in mouse liver microsome assessed as hepatic clearance in presence of NADPH measured upto 60 mins by LC-MS/MS analysis; type: ADME; details: liver microsomes
[21] = Half life in ICR mouse at 10 mg/kg, po measured upto 24 hrs by LC-MS/MS analysis; type: ADME, organism-based; details: in vivo
[22] = Tmax in ICR mouse at 10 mg/kg, ip measured upto 24 hrs by LC-MS/MS analysis; type: ADME, organism-based; details: in vivo
[23] = MRT (0 to t) in ICR mouse at 10 mg/kg, po measured upto 24 hrs by LC-MS/MS analysis; type: ADME, organism-based; details: in vivo
[24] = MRT (0 to infinity) in ICR mouse at 10 mg/kg, ip measured upto 24 hrs by LC-MS/MS analysis; type: ADME, organism-based; details: in vivo
[25] = AUC (0 to infinity) in ICR mouse at 10 mg/kg, po measured upto 24 hrs by LC-MS/MS analysis; type: ADME, organism-based; details: in vivo
[26] = AUC (0 to t) in ICR mouse at 10 mg/kg, po measured upto 24 hrs by LC-MS/MS analysis; type: ADME, organism-based; details: in vivo
[27] = Cmax in ICR mouse at 10 mg/kg, po measured upto 24 hrs by LC-MS/MS analysis; type: ADME, organism-based; details: in vivo
[28] = Tmax in ICR mouse at 10 mg/kg, po measured upto 24 hrs by LC-MS/MS analysis; type: ADME, organism-based; details: in vivo
Mus musculus = test: Antidepressant activity in ip dosed C57BL/6J mouse assessed as reduction in of immobility time by forced swim test; type: functional, organism-based; details: dose 10-20 mg/kg

Chain of Sodium-dependent serotonin transporter (P31645 whole entry): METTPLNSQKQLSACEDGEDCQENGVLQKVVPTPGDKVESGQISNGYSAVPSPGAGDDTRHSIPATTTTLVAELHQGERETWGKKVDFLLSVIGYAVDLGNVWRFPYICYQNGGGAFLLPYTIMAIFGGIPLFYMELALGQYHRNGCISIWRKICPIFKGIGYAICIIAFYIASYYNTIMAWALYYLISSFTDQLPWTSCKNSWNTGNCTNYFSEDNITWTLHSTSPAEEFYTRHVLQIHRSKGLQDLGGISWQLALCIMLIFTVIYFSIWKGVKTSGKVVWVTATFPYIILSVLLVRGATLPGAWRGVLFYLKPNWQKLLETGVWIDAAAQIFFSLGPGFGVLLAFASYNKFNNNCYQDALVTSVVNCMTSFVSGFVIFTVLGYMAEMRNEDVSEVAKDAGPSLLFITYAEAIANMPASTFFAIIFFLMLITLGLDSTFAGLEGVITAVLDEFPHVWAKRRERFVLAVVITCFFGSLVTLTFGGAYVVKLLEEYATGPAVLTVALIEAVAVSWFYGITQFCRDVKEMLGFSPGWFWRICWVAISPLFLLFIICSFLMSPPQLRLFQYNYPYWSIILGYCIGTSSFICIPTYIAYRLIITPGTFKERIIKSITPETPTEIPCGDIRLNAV
T1 sequence (Q01959 whole entry): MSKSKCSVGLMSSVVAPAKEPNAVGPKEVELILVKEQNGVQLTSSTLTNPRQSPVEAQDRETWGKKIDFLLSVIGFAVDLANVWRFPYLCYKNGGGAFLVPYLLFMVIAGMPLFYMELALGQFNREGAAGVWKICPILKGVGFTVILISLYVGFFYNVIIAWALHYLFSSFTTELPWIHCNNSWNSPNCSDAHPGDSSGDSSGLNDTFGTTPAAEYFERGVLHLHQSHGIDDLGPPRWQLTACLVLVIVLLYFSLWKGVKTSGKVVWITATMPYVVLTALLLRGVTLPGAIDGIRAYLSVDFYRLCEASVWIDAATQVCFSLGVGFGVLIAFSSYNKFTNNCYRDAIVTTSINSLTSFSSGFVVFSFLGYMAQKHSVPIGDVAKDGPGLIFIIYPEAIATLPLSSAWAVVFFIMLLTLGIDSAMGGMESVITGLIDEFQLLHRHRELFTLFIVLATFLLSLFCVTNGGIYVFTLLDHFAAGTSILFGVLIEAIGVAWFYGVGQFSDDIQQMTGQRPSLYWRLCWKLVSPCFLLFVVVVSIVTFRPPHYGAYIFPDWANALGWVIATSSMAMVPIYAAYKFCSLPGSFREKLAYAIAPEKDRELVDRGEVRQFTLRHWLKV
T2 sequence (P23975 whole entry): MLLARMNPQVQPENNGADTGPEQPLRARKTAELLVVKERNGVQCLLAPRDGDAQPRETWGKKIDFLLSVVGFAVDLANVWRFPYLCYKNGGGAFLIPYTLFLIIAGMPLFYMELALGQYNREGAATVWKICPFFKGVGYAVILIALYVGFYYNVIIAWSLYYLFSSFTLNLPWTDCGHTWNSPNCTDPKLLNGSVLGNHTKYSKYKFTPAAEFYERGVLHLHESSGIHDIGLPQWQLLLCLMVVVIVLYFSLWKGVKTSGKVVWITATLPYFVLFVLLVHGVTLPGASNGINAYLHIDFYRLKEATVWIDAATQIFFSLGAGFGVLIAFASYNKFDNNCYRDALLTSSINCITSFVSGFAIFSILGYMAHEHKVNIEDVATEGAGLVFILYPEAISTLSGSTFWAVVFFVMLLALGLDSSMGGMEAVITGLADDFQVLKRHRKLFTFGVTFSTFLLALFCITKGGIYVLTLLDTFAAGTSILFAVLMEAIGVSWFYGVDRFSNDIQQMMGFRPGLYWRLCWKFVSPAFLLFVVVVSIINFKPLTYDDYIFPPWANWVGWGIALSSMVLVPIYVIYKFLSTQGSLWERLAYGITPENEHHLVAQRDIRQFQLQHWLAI
T4 sequence (Q12879 whole entry, other chains not shown): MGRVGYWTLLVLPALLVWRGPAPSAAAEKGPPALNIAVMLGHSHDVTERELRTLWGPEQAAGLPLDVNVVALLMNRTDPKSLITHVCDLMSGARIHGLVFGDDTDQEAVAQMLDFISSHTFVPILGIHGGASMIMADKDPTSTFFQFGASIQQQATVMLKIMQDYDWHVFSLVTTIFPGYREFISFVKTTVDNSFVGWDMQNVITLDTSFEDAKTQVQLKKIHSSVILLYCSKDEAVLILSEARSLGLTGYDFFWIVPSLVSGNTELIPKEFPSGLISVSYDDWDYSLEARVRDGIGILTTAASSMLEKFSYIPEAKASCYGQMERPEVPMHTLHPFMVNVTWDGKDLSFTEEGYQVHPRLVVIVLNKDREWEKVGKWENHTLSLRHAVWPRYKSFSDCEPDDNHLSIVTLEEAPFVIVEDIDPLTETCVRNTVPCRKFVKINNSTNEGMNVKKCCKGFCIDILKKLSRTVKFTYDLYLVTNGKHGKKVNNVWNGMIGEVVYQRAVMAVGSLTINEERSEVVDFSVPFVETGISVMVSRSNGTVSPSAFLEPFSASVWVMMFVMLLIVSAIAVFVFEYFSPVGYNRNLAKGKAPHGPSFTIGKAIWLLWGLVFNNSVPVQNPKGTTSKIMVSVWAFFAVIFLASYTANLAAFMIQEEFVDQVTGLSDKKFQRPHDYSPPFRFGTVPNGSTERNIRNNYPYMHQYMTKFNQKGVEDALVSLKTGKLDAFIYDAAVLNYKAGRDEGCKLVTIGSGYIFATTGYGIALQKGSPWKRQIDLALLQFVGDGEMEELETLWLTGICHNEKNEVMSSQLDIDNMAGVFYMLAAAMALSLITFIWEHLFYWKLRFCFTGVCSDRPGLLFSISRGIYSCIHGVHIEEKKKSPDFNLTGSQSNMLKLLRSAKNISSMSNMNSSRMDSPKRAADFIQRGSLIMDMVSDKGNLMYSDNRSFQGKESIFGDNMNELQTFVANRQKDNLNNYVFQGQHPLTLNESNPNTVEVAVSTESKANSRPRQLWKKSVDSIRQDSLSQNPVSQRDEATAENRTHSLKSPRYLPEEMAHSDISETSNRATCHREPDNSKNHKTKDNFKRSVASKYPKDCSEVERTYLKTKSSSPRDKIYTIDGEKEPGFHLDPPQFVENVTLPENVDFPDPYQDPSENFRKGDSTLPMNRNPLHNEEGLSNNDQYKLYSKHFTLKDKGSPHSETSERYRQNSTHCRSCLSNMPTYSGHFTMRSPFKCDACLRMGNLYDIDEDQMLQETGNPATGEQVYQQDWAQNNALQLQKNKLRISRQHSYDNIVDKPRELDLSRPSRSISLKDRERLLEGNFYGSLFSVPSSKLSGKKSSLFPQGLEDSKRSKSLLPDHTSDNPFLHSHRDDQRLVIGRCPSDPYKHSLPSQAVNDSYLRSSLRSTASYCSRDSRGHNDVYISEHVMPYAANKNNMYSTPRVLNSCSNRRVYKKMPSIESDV
T3 sequence (P35372 whole entry): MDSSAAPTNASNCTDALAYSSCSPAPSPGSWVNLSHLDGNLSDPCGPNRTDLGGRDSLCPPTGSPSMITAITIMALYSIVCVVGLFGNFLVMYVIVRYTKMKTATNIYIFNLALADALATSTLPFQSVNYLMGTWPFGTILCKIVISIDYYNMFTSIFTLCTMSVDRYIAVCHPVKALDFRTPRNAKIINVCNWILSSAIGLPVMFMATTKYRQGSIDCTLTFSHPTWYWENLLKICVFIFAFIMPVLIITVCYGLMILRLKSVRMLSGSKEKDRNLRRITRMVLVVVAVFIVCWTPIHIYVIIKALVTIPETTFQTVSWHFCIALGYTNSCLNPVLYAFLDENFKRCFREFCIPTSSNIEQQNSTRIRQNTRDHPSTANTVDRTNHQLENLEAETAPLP

SMILES | inhibition [1] | inhibition [2] | inhibition (Mu-type opioid receptor [3]) [%] | pIC50 [4] | pIC50 [5] | further results
CC(O)c1ccc2c(c1)[C@]13CCCC[C@@H]1[C@H](C2)N(C)CC3 (some centres not stated) | inactive | 39% | 8 | 2.96 |  | 
CCN1CC[C@@]23CCCC[C@@H]2[C@@H]1Cc1ccccc13 | inactive | 23% |  | 1.95 | 5.31 | inhibition (Mu-type opioid receptor [3]; filed as agonist): 40%
c1ccc2c(c1)C[C@@H]1NCC[C@]23CCCC[C@H]13 | 20% | 14% |  | 2.08 |  | pIC50 [6]: 6.37; inhibition (Mu-type opioid receptor [3]; filed as agonist): 95%
COc1ccc2c(c1)[C@]13CCCC[C@@H]1[C@H](C2)NCC3 | 4% | 44% | 23 | 2.93 | 6.52 | 
CCN1CC[C@@]23CCCC[C@@H]2[C@@H]1Cc1ccc(O)cc13 | 12% |  | 9 | 2.27 | 6.55 | pIC50 [7]: 4.98
CN1CC[C@@]23CCCC[C@@H]2[C@@H]1Cc1ccc(NC(=O)c2ccccc2)cc13 | 15% | inactive | 14 | 2.12 | 5.66 | 
CN1CC[C@@]23CCCC[C@@H]2[C@@H]1Cc1ccc(C(C)(C)O)cc13 | inactive | inactive | 11 | 2.05 | < 4.40 | 
CN1CC[C@@]23CCCC[C@@H]2[C@@H]1Cc1ccccc13 | 15% |  | 39 | 3.48 | 5.53 | pIC50 [7]: 4.76
CCc1ccc2c(c1)[C@]13CCCC[C@@H]1[C@H](C2)N(CC)CC3 | 5% | 24% | 10 | 2.64 | 5.01 | 
CN1CC[C@@]23CCCC[C@@H]2[C@@H]1Cc1ccc(C(N)=O)cc13 | inactive | 12% |  | 3.91 | 5.52 | pEC50 (Mu-type opioid receptor [8]): 4.60
CNC(=O)c1ccc2c(c1)[C@]13CCCC[C@@H]1[C@H](C2)N(C)CC3 | 15% | 12% | 25 | 3.47 | 4.70 | 
COC(=O)c1ccc2c(c1)[C@]13CCCC[C@@H]1[C@H](C2)N(C)CC3 | inactive | 12% |  | 4.77 | 5.32 | inhibition (Mu-type opioid receptor [3]; filed as agonist): 88%
Cc1ccc2c(c1)[C@]13CCCC[C@@H]1[C@H](C2)NCC3 | inactive |  | 16 | 2.68 | 6.55 | pIC50 [7]: 5.24
CN1CC[C@@]23CCCC[C@@H]2[C@@H]1Cc1ccc(NC=O)cc13 | 6% | inactive | 33 | 3.57 | 5.51 | 
CN1CC[C@@]23CCCC[C@@H]2[C@@H]1Cc1ccc(O)cc13 [DEXTRORPHAN] | inactive |  |  | 3.20 | 6.55 | pIC50 [7]: 5.55
Cc1ccc2c(c1)[C@]13CCCC[C@@H]1[C@H](C2)N(C)CC3 [DIMEMORFAN] | inactive |  | 21 | 3.83 | 5.53 | pIC50 [7]: 5.91; Ratio IC50 [9]: 20
CNc1ccc2c(c1)[C@]13CCCC[C@@H]1[C@H](C2)N(C)CC3 | 10% | 25% | 14 | 3.24 | 5.21 | 
CN1CC[C@@]23CCCC[C@@H]2[C@@H]1Cc1ccc(C(=O)NC2CC2)cc13 | 6% | inactive |  | 2.25 | 5.03 | inhibition (Mu-type opioid receptor [3]; filed as agonist): 60%
Cc1ccc(Sc2ccccc2N2CCNCC2)c(C)c1 [VORTIOXETINE] |  |  |  |  |  | IC50 at 48 h [10]: 12.2 µM; IC50 at 48 h [11]: 8.1 µM
CCOc1ccc2c(c1)[C@]13CCCC[C@@H]1[C@H](C2)N(C)CC3 | 10% | 33% | 26 | 4.82 | 5.74 | 
CCc1ccc2c(c1)[C@]13CCCC[C@@H]1[C@H](C2)NCC3 | inactive |  | 33 | 2.72 | 6.30 | pIC50 [7]: 5.33
CC(=O)c1ccc2c(c1)[C@]13CCCC[C@@H]1[C@H](C2)N(C)CC3 | inactive | inactive |  | 3.89 | < 4.40 | inhibition (Mu-type opioid receptor [3]; filed as agonist): 87%
CCOc1ccc2c(c1)[C@]13CCCC[C@@H]1[C@H](C2)N(CC)CC3 | 6% | 26% | 4 | 2.70 | 5.89 | 
c1ccc2cc([C@]34CNC[C@H]3C4)ccc2c1 [CENTANAFADINE] |  |  |  | 4.05 |  | pIC50 [12]: 7.22; pIC50 [7]: 8.00; Activity (Mu-type opioid receptor [3]): inactive
CCOc1ccc2c(c1)[C@]13CCCC[C@@H]1[C@H](C2)NCC3 | 16% | 12% | 24 | 3.33 | 6.47 | 
CCc1ccc2c(c1)[C@]13CCCC[C@@H]1[C@H](C2)N(C)CC3 | 13% |  | 23 | 3.62 | 5.29 | pIC50 [7]: 5.31
CC(=O)Nc1ccc2c(c1)[C@]13CCCC[C@@H]1[C@H](C2)N(C)CC3 | 19% | inactive | 36 | 3.36 | 5.66 | half-life [13]: 44.4 min; AUC(0-t) at 24 h [14]: 1080 ng·h/mL; half-life [15]: 267 min; Cmax [16]: 1680 ng/mL; AUC(0-inf) [17]: 1080 ng·h/mL; hepatic extraction ratio at 1 h [18]: 0.281; CLint scaled [19]: 35.1 mL/min/kg; CLhep predicted [20]: 25.3 mL/min/kg; half-life [21]: 51.6 min; Tmax [22]: 4.8 min; MRT last at 24 h [23]: 62.4 min; MRT inf [24]: 40.8 min; AUC(0-inf) [25]: 1220 ng·h/mL; AUC(0-t) at 24 h [26]: 1220 ng·h/mL; Cmax [27]: 1040 ng/mL; Tmax [28]: 11.4 min; Activity (Mus musculus): Dose-dependent-effect
